This note sets out measurements from patent publication US20200178586A1, “PEPTIDE” (FUJI OIL HOLDINGS INC., priority 2017, published 2020).

A short description of assay [1]: Sensory evaluation of body taste-imparting effect of γ-glutamyl peptides in umami solution and sweet taste solution (Example 2). Particulars: for Initial-middle taste / Middle-after taste: average score of 7 trained panelists, 5 levels, control = 3 points; for body taste of from the initial taste to middle taste (in words) / persistence of the aftertaste (in words) / taste from the middle taste to aftertaste (in words): umami and sweet taste solutions, summary of Table 1. As for the experimental part: Umami solution containing 0.7% MSG-0.4% NaCl and Sweet taste solution containing 6% sucrose were used as controls (3 points). And, sample solution was prepared by adding each γ-glutamyl peptide to the control. As comparative controls, γ-Glu-Val-Gly disclosed in Patent Document 1 and Patent Document 6 were used. The panelists were 7 trained panelists at Fuji Oil Holdings Inc. And, the panelist evaluated a body taste of from initial taste to middle taste, a thickness of from middle taste to aftertaste, and persistence with the following five levels.
(§1) 5 points: feels much stronger than the control 4 points: feels stronger than the control 3 points: feels the same as the control 2 points: feels a little weaker than the control 1 point: feels much weaker than the control

Assay [2] in a line: Sensory evaluation of body taste-imparting effect on sweet taste solution (Example 3). To be noted: Sweet taste solution (6% sucrose), 100 ppm peptide; for Initial-middle taste: average score of eight trained panelists, 5 levels, control = 3 points; for body taste-imparting effect (in words): summary of FIG. 3 and Table 2. How it is done:
Sweet taste solution containing 6% sucrose was used as a control (3 points). And, sample solution was prepared by adding 100 ppm of each γ-glutamyl tripeptide to the control. As comparative controls, γ-Glu-γ-Glu-Val and γ-Glu-γ-Glu-α-Glu-Tyr were used. The panelists were eight trained panelists at Fuji Oil Holdings Inc. And, the panelist evaluated a body taste of from initial taste to middle taste with the following five levels.
as §1

Where [3] appears, read: Sweet taste solution (6% sucrose).
Where [4] appears, read: Umami solution (0.7% MSG-0.4% NaCl).

Entries after “also recorded” stand apart in the source; their conditions may differ. Marks after values point to notes of the source that are not given here. *1 amine or outer side, *2 acyl side, *3 side chain or, on linkers, in order; H or OH if unused. Where no end group is shown, it is not given here. [ ]: non-standard residue; d: D form. γGlu = O=C(O)[C@H](CCC(=O)[*:2])N[*:1]

[γGlu]-Tyr [reference compound]: in assay [1] (setting [3]), the Initial-middle taste worked out at 3.5 points and the Middle-after taste is given as 3.9* points. Moreover, in assay [1] (setting [4]), the Initial-middle taste came to 3.5 points and the Middle-after taste is 3.9* points. In addition, in assay [1], the “body taste of from the initial taste to middle taste (in words)” value (shortened to “body taste of from the initial taste”) is listed as “imparted little body taste”, the “persistence of the aftertaste (in words)” value was “persistent of the strong aftertaste” and the “taste from the middle taste to aftertaste (in words)” value is “strong”.
With [γGlu]-Val-Gly [reference compound], in assay [1] (setting [3]), the Initial-middle taste was found to be 3.6 points and the Middle-after taste is listed as 4.3* points. In assay [1] (setting [4]), the Initial-middle taste came out at 3.6 points and the Middle-after taste is reported as 4.8* points. In assay [1], the “body taste of from the initial taste” value was “imparted little body taste”, the “persistence of the aftertaste (in words)” value is listed as “persistent of the strong aftertaste” and the “taste from the middle taste to aftertaste (in words)” value is reported as “strong”.
In the case of [γGlu]-[γGlu]-Tyr, in assay [1] (setting [3]), the Initial-middle taste is recorded as 4.0* points and the Middle-after taste is 3.7* points. Moreover, in assay [1] (setting [4]), the Initial-middle taste is 4.0* points and the Middle-after taste is given as 3.9* points. In assay [1], the “body taste of from the initial taste” value is recorded as “imparted the body taste overall” and the “persistence of the aftertaste (in words)” value is listed as “suppressed”.
The substance [γGlu]-[γGlu]-Val registered an Initial-middle taste in assay [2] of 3.1 points.
As to [γGlu][γGlu]EY, in assay [2], the Initial-middle taste is recorded as 3.4 points and the “body taste-imparting effect (in words)” value is listed as “an effect was also observed”.
For [γGlu][γGlu][γGlu]A, in assay [2], the Initial-middle taste turned out to be 3.4 points and the “body taste-imparting effect (in words)” value is reported as “particularly effective”.
Turning to [γGlu][γGlu][γGlu]C, in assay [2], the Initial-middle taste is given as 3.0 points.
For [γGlu][γGlu][γGlu]D, in assay [2], the Initial-middle taste stood at 3.4 points and the “body taste-imparting effect (in words)” value is recorded as “particularly effective”.
With [γGlu][γGlu][γGlu]E, in assay [2], the Initial-middle taste is 3.5* points and the “body taste-imparting effect (in words)” value is recorded as “particularly effective”.
Take [γGlu][γGlu][γGlu]F: in assay [2], the Initial-middle taste is 3.4 points and the “body taste-imparting effect (in words)” value is “particularly effective”.
For [γGlu][γGlu][γGlu]G, the Initial-middle taste in assay [2] worked out at 3.1 points.
Turning to [γGlu][γGlu][γGlu]H, in assay [2], the Initial-middle taste is 3.5* points and the “body taste-imparting effect (in words)” value was “particularly effective”.
As for [γGlu][γGlu][γGlu]I, in assay [2], the Initial-middle taste turned out to be 3.4 points and the “body taste-imparting effect (in words)” value is on record as “particularly effective”.
As for [γGlu][γGlu][γGlu]K, the Initial-middle taste in assay [2] is on record as 3.1 points.
Turning to [γGlu][γGlu][γGlu]L, in assay [2], the Initial-middle taste is listed as 3.3 points and the “body taste-imparting effect (in words)” value is recorded as “particularly effective”.
[γGlu][γGlu][γGlu]M: the Initial-middle taste in assay [2] is 3.0 points.
On the same count and under the same terms, for [γGlu][γGlu][γGlu]N the value was 3.3 points.
Still for that read-out and setting: for [γGlu][γGlu][γGlu]P the value was 3.1 points; for [γGlu][γGlu][γGlu]Q, 3.3 points.
Regarding [γGlu][γGlu][γGlu]R, in assay [2], the Initial-middle taste was 4.1** points and the “body taste-imparting effect (in words)” value is listed as “particularly effective”.
The like results for [γGlu][γGlu][γGlu]S were, in that order, 3.4 points and “particularly effective”.
Turning to [γGlu][γGlu][γGlu]T, the Initial-middle taste in assay [2] was determined as 2.9 points.
In the case of [γGlu][γGlu][γGlu]V, in assay [2], the Initial-middle taste is reported as 3.4 points and the “body taste-imparting effect (in words)” value was “particularly effective; also recorded: superior to γ-Glu-γ-Glu-Val”.
[γGlu][γGlu][γGlu]W: the Initial-middle taste in assay [2] is on record as 3.1 points.
Take [γGlu][γGlu][γGlu]Y: in assay [2], the Initial-middle taste was 4.3** points and the “body taste-imparting effect (in words)” value was “particularly effective”. In addition, in assay [1] (setting [3]), the Initial-middle taste was 4.3* points and the Middle-after taste is on record as 4.3* points. For the same substance, in assay [1] (setting [4]), the Initial-middle taste was 4.1* points and the Middle-after taste is on record as 4.0* points. Further, in assay [1], the “body taste of from the initial taste” value is given as “imparted the body taste overall” and the “persistence of the aftertaste (in words)” value is reported as “suppressed”.
For [γGlu][γGlu][γGlu][γGlu]Y, in assay [1] (setting [3]), the Initial-middle taste is 3.9* points and the Middle-after taste came out at 3.6 points. In assay [1] (setting [4]), the Initial-middle taste is reported as 3.9* points and the Middle-after taste is 3.7 points. The “body taste of from the initial taste” value in assay [1] is “sufficiently imparted a body taste”.
